Counter-ions that a name gives are not always drawn.
Target: T1, porcine lipase (Sus scrofa, UniProt P00591)
T1 sequence (P00591 1-450): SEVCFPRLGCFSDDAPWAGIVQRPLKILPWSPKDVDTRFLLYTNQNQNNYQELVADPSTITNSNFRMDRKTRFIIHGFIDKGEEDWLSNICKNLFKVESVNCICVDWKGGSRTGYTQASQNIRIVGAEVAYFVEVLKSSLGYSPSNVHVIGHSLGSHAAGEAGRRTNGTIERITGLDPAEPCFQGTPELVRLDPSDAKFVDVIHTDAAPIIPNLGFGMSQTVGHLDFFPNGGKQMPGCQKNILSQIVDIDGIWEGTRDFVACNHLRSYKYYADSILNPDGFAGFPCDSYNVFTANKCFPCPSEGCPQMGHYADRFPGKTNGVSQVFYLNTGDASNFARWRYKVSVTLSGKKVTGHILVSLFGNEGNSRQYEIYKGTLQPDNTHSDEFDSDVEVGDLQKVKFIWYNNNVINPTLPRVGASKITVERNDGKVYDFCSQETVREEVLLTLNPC
Experiment: Inhibition of the lyses of triglycerides (olive oil) by porcine lipase, colorimetric test of released fatty acids
Format: biochemical
Conditions: for Absorbance Mean: 37° C., read at 546 nm
Description: The inhibition of the lyses of triglycerides in the presence of porcine lipase was evaluated by analysing the released fatty acids using a colorimetric test.
The test consists in two distinct phases, one enzymatic reaction test which enables the lyses of triglycerides to leave the olive oil in the presence of porcine lipase and, successively, a colorimetric essay to determine the released fatty acids formed.
The porcine lipase, in the presence of the substrata (olive oil) and in opportune incubation conditions, catalyzes the following reaction:
Triglycerides+H2O→Diglycerides+Fatty acids
The dose of fatty acids allows indirect evaluation of the enzymatic activity and the lyses of triglycerides.
To evacuate the inhibition activity of the substance being analysed, three different concentrations of the substance under examination (5%, 1% and 0.5% in water) were tested at two different times (15 and 30 minutes).
In order to allow complete solubility, the 5% concentration was left at room temperature for 72 hours.
The porcine lipase was dissolved in deionised water at 4° C. just before use at the concentrations of 2000 U/ml. As a source of triglycerides olive oil was used. The buffer used for the reaction is Tris HCl 200 mM, pH=7.7 at 37° C. The test was conducted in the presence and in the absence of substance to be tested at different concentrations.
The following reagents are incubated at 37° C.: deionised water (150 μL), buffer (100 μL), olive oil (300 μL).
In the case of the sample (TEC 5%, 1% and 0.5%), the water was substituted with 150 μL of the solution to be tested.
Subsequent, the enzymatic solution (200 μL) was added and the reaction was allowed to develop for 30 and 15 minutes at a temperature of 37° C. On termination of the 15 and 30 minute periods, the reaction was blocked by adding 300 μL of ethanol at 95%.
50 μL of the solution containing the released fatty acids formed are used for the calorimetric dose, carried out using the special kit, that provides the necessary reagents to develop the reaction described below.
In the presence of the Acyl-CoA enzyme synthesis (AcylCS) and adenosin-5′-triphosphate (ATP) the released fatty acids are converted into acyl-CoA, adenosin-5′-monophosphate (AMP) and pyrophosphate. Acyl-CoA reacts with oxygen (O2) in the presence of Acyl coA oxidase (ACOD) forming 2,3-enoylcoenzymeA. The resulting H202 converts the 2,4,6-tribromo-3-hydroxy-benzoic acid (TBHB) and the 4-aminoantipyrine (4-AA) into a red stain in the presence of peroxidase (POD).
The samples are read at the 546 nm wave length, before and after the addition of ACOD and the reaction is conducted at room temperature.
Fatty acids+CoA+ATP→acyl-CoA+AMP+pyrophosphate
Acyl-CoA+O2→enoyl-coA+H202

[1] = TEC 0.5% in water, 15 min reaction
[2] = TEC 0.5% in water, 30 min reaction
[3] = TEC 1% in water, 15 min reaction
[4] = TEC 1% in water, 30 min reaction
[5] = TEC 5% in water, 15 min reaction
[6] = TEC 5% in water, 30 min reaction

fatty acids reduction compared to control (%) [1]: 18.04%
Absorbance Mean [1]: 0.584
fatty acids reduction compared to control (%) [2]: 11.10%
Absorbance Mean [2]: 0.084
fatty acids reduction compared to control (%) [3]: 17.12%
Absorbance Mean [3]: 0.5905
fatty acids reduction compared to control (%) [4]: 12.70%
Absorbance Mean [4]: 0.083
fatty acids reduction compared to control (%) [5]: 44.84%
Absorbance Mean [5]: 0.393
fatty acids reduction compared to control (%) [6]: 81.50%
Absorbance Mean [6]: 0.018
protection of the triglycerides from the enzymatic hydrolysis exercised by the lipases (maximum percentage according to the method followed, from the absorbance values): up to 85%
Structure (SMILES): CCOC(=O)CC(O)(CC(=O)OCC)C(=O)OCC [TEC, triethyl citrate]

Source: US20080287377A1, “Composition Based on Triethyl Citrate for the Prevention of Enzymatic Hydrolysis of Triglycerides” (priority 2005, published 2008)
